Data as given in ChEMBL document CHEMBL1152232, “Muscarinic acetylcholine receptor antagonists: SAR and optimization of tyrosine ureas” (Bioorg Med Chem Lett, 2008).

Experiments:
[1] = molecular target: T1, Muscarinic acetylcholine receptor M2 (Homo sapiens, UniProt P08172); test: Antagonist activity at human recombinant muscarinic M2 receptor expressed in CHO cells coexpressing chimeric G protein Gqi5 assessed as inhibition of acetylcholine-induced intracellular Ca2+ mobilization by FLIPR assay; type: functional, cell-based; conditions: for Kb: read-out: pA2 (converted)
T1 sequence (P08172 whole entry): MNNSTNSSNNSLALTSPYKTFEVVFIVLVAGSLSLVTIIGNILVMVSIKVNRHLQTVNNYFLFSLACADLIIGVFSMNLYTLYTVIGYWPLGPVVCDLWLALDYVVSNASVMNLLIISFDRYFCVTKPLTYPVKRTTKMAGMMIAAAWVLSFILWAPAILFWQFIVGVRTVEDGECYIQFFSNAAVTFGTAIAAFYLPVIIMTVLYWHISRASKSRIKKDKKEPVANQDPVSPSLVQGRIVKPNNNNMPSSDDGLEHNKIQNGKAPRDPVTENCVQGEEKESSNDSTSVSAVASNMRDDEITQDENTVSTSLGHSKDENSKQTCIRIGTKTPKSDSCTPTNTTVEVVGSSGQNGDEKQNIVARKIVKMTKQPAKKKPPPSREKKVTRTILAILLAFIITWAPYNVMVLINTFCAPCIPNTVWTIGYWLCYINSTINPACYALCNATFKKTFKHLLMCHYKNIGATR

[2] = molecular target: Muscarinic acetylcholine receptor M3 (Homo sapiens, UniProt P20309); test: Antagonist activity at human recombinant muscarinic M3 receptor expressed in CHO cells assessed as inhibition of acetylcholine-induced intracellular Ca2+ mobilization by FLIPR assay; type: functional, cell-based; conditions: for Kb: read-out: pA2 (converted)
[3] = molecular target: T2, Muscarinic acetylcholine receptor M1 (Homo sapiens, UniProt P11229); test: Antagonist activity at human recombinant muscarinic M1 receptor expressed in CHO cells assessed as inhibition of acetylcholine-induced intracellular Ca2+ mobilization by FLIPR assay; type: functional, cell-based; conditions: for Kb: read-out: pA2 (converted)
T2 sequence (P11229 whole entry): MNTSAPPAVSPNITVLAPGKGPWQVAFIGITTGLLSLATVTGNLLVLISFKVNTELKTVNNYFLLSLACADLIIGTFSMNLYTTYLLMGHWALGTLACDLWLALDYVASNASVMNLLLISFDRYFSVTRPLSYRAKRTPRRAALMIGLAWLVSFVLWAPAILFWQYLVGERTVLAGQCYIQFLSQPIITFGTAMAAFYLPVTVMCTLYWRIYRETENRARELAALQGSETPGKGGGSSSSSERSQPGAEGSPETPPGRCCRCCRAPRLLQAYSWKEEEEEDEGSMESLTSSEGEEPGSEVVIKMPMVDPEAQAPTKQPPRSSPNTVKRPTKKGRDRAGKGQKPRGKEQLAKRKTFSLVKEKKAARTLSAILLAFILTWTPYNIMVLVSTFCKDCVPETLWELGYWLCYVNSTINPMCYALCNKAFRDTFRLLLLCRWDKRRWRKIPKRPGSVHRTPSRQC

[4] = molecular target: Muscarinic acetylcholine receptor M1 and M3 (Homo sapiens) (UniProt P20309+P11229); test: Selectivity for human recombinant muscarinic M3 receptor over human recombinant muscarinic M1 receptor
[5] = molecular target: Muscarinic acetylcholine receptors; M2 & M3 (Homo sapiens) (UniProt P20309+P08172); test: Selectivity for human recombinant muscarinic M3 receptor over human recombinant muscarinic M2 receptor
Sequence of Muscarinic acetylcholine receptors; M2 & M3 (Homo sapiens) (P20309 whole entry, looked up, one chain of several): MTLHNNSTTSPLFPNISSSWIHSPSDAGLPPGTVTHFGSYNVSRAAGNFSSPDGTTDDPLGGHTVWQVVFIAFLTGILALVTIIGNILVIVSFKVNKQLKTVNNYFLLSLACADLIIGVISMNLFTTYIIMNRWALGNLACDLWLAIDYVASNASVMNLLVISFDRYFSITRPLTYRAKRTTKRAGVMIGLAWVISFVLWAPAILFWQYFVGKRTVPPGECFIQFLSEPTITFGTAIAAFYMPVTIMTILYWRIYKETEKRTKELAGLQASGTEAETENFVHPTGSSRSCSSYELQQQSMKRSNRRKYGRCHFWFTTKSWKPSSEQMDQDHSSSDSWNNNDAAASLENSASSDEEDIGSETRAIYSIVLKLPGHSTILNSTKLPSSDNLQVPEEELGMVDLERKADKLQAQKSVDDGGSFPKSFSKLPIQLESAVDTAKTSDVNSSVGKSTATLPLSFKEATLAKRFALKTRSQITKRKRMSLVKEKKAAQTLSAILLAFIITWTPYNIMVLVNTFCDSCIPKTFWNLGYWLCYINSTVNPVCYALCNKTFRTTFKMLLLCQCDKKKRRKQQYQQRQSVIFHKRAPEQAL

Sequence of Muscarinic acetylcholine receptor M3 (P20309 whole entry): as the sequence (P20309 whole entry, looked up, one chain of several) above
Sequence of Muscarinic acetylcholine receptor M1 and M3 (Homo sapiens) (P20309 whole entry, looked up, one chain of several): as above

Row | Compound | IC50 [1] [µM] | IC50 [2] [µM] | IC50 [3] [µM] | Selectivity ratio [4] | Selectivity ratio [5] | Kb [1] [µM] | Kb [2] [µM] | Kb [3] [µM]
1 | CCOC(=O)c1ccc(NC(=O)N[C@@H](Cc2ccc(C(=O)c3ccccc3)cc2)C(=O)N[C@H]2CC[N+](C)(Cc3ccc4c(c3)OCO4)C2)cc1 (some centres undefined) | 0.00251 | 0.0126 | 0.01 | – | – | – | – | –
2 | CCOC(=O)c1ccc(NC(=O)N[C@@H](Cc2ccc(Br)cc2)C(=O)N[C@H]2CC[N+](C)(Cc3ccc4c(c3)OCO4)C2)cc1 (some centres undefined) | 0.00398 | 0.0126 | 0.0316 | – | – | – | – | –
3 | CC(C)COC(=O)c1ccc(NC(=O)N[C@@H](Cc2ccc(O)cc2)C(=O)NC2CCN(Cc3ccc(O)cc3)C2)cc1 (some centres undefined) | 1.26 | 0.251 | > 3.16 | – | – | – | – | –
4 | CCOC(=O)c1ccc(NC(=O)N[C@@H](Cc2ccc(-c3ccccc3)cc2)C(=O)N[C@H]2CC[N+](C)(Cc3ccc4c(c3)OCO4)C2)cc1 (some centres undefined) | 0.00501 | 0.0158 | 0.0126 | – | – | – | – | –
5 | CCOC(=O)c1ccc(NC(=O)N[C@@H](Cc2ccc(O)cc2)C(=O)NC2CCN(Cc3cccc(C(F)(F)F)c3)C2)cc1 (some centres undefined) | 0.631 | 0.0158 | > 3.16 | 100 | 10 | – | – | –
6 | CC(C)NC(=O)c1ccc(NC(=O)N[C@@H](Cc2ccc(O)cc2)C(=O)NC2CCN(Cc3ccc(C#N)cc3)C2)cc1 (some centres undefined) | 1.58 | 0.1 | > 3.16 | – | – | – | – | –
7 | CCOC(=O)c1ccc(NC(=O)N[C@@H](Cc2ccccc2Cl)C(=O)N[C@H]2CC[N+](C)(Cc3ccc4c(c3)OCO4)C2)cc1 (some centres undefined) | 0.1 | 0.126 | 2 | – | – | – | – | –
8 | N#Cc1ccc(CN2CCC(NC(=O)[C@H](Cc3ccc(O)cc3)NC(=O)Nc3ccc(C(=O)NCc4ccccc4)cc3)C2)cc1 (some centres undefined) | > 3.16 | 1.58 | > 3.16 | – | – | – | – | –
9 | CCOC(=O)c1ccc(NC(=O)N[C@@H](Cc2ccc(O)cc2)C(=O)N[C@H]2CC[N+](C)(Cc3ccc4c(c3)OCO4)C2)cc1 (some centres undefined) | 0.0398 | 0.00631 | 0.158 | – | – | – | – | –
10 | CCOC(=O)c1ccc(NC(=O)N[C@@H](Cc2ccc(F)cc2)C(=O)N[C@H]2CC[N+](C)(Cc3ccc4c(c3)OCO4)C2)cc1 (some centres undefined) | 0.01 | 0.0158 | 0.1 | – | – | – | – | –
11 | CCOC(=O)c1ccc(NC(=O)N[C@@H](Cc2ccc(O)cc2)C(=O)N[C@H]2CCC[N+](C)(Cc3ccc(F)cc3)C2)cc1 (some centres undefined) | 0.00251 | 0.002 | 0.1 | – | – | – | – | –
12 | CCOC(=O)c1ccc(NC(=O)N[C@@H](Cc2ccc(O)cc2)C(=O)NC2CCN(Cc3ccc(OC)cc3)C2)cc1 (some centres undefined) | 0.251 | 0.02 | 0.501 | 100 | 10 | – | – | –
13 | CCOC(=O)c1ccc(NC(=O)N[C@@H](Cc2ccc(O)cc2)C(=O)N[C@H]2CC[N+](C)(Cc3ccc(F)cc3)C2)cc1 (some centres undefined) | 0.0398 | 0.00631 | 0.2 | – | – | – | – | –
14 | CCOC(=O)c1ccc(NC(=O)N[C@@H](Cc2ccc(OC)cc2)C(=O)N[C@H]2CC[N+](C)(Cc3ccc4c(c3)OCO4)C2)cc1 (some centres undefined) | 0.00501 | 0.0398 | 0.0794 | – | – | – | – | –
15 | CCOC(=O)c1ccc(NC(=O)N[C@@H](Cc2ccc(O)cc2)C(=O)N[C@H]2CC[N+](C)(Cc3ccc(O)cc3)C2)cc1 (some centres undefined) | 0.0398 | 0.00631 | 0.251 | – | – | – | – | –
16 | CCOC(=O)c1ccc(NC(=O)N[C@@H](Cc2ccc(O)cc2)C(=O)NC2CCN(CC3CC3)C2)cc1 (some centres undefined) | 0.1 | 0.0251 | 0.631 | 100 | 10 | – | – | –
17 | CNC(=O)c1ccc(NC(=O)N[C@@H](Cc2ccc(O)cc2)C(=O)NC2CCN(Cc3ccc(C#N)cc3)C2)cc1 (some centres undefined) | > 3.16 | 2.51 | > 3.16 | – | – | – | – | –
18 | CC(C)NC(=O)c1ccc(NC(=O)N[C@@H](Cc2ccc(O)cc2)C(=O)N[C@H]2CCC[N+](C)(Cc3ccc(O)cc3)C2)cc1 (some centres undefined) | – | – | – | – | – | 0.00398 | 0.000631 | 0.0794
19 | CCOC(=O)c1ccc(NC(=O)N[C@@H](Cc2ccc(O)cc2)C(=O)NC2CCN(Cc3ccccc3OC)C2)cc1 (some centres undefined) | 0.158 | 0.0501 | 1 | 100 | 10 | – | – | –
20 | CCOC(=O)c1ccc(NC(=O)N[C@@H](Cc2ccc(O)cc2)C(=O)NC2CCN(CC)C2)cc1 (some centres undefined) | 2.51 | 0.794 | > 3.16 | 100 | 10 | – | – | –

Row | Compound | IC50 [1] [µM] | IC50 [2] [µM] | IC50 [3] [µM] | Selectivity ratio [4] | Selectivity ratio [5] | Kb [1] [µM] | Kb [2] [µM] | Kb [3] [µM]
21 | CCOC(=O)c1ccc(NC(=O)N[C@@H](Cc2ccc(C(F)(F)F)cc2)C(=O)N[C@H]2CC[N+](C)(Cc3ccc4c(c3)OCO4)C2)cc1 (some centres undefined) | 0.01 | 0.0316 | 0.0501 | – | – | – | – | –
22 | CCOC(=O)c1ccc(NC(=O)N[C@@H](Cc2ccc(C)cc2)C(=O)N[C@H]2CC[N+](C)(Cc3ccc4c(c3)OCO4)C2)cc1 (some centres undefined) | 0.01 | 0.0158 | 0.1 | – | – | – | – | –
23 | CC(C)OC(=O)c1ccc(NC(=O)N[C@@H](Cc2ccc(O)cc2)C(=O)N[C@H]2CCC[N+]3(CCCCCC3)C2)cc1 | – | – | – | – | – | 0.00501 | 0.00316 | 0.0794
24 | CCCOC(=O)c1ccc(NC(=O)N[C@@H](Cc2ccc(O)cc2)C(=O)NC2CCN(Cc3ccc(O)cc3)C2)cc1 (some centres undefined) | 0.1 | 0.01 | 1 | – | – | – | – | –
25 | CCOC(=O)c1ccc(NC(=O)N[C@@H](Cc2ccc(OC)c(OC)c2)C(=O)N[C@H]2CC[N+](C)(Cc3ccc4c(c3)OCO4)C2)cc1 (some centres undefined) | 0.0501 | 1.26 | 0.631 | – | – | – | – | –
26 | COC(=O)c1ccc(NC(=O)N[C@@H](Cc2ccc(O)cc2)C(=O)NC2CCN(Cc3ccc(O)cc3)C2)cc1 (some centres undefined) | 0.316 | 0.0251 | 1 | – | – | – | – | –
27 | CCNC(=O)c1ccc(NC(=O)N[C@@H](Cc2ccc(O)cc2)C(=O)NC2CCN(Cc3ccc(C#N)cc3)C2)cc1 (some centres undefined) | > 3.16 | 0.316 | > 3.16 | – | – | – | – | –
28 | CCOC(=O)c1ccc(NC(=O)N[C@@H](Cc2ccc(N)cc2)C(=O)N[C@H]2CC[N+](C)(Cc3ccc4c(c3)OCO4)C2)cc1 (some centres undefined) | 0.0158 | 0.0158 | 1.26 | – | – | – | – | –
29 | N#Cc1ccc(CN2CCC(NC(=O)[C@H](Cc3ccc(O)cc3)NC(=O)Nc3ccc(C(=O)N4CCOCC4)cc3)C2)cc1 (some centres undefined) | > 3.16 | 1 | > 3.16 | – | – | – | – | –
30 | CCOC(=O)c1ccc(NC(=O)N[C@@H](Cc2ccc(O)cc2)C(=O)NC2CCN(Cc3ccc(O)cc3)C2)cc1 (mixture of isomers) | – | – | – | 100 | 10 | – | – | –
31 | CC(C)OC(=O)c1ccc(NC(=O)N[C@@H](Cc2ccc(O)cc2)C(=O)N[C@H]2CCC[N+](CC3CC3)(CC3CC3)C2)cc1 | – | – | – | – | – | 0.00501 | 0.000631 | 0.0398
32 | CCN(CC)C(=O)c1ccc(NC(=O)N[C@@H](Cc2ccc(O)cc2)C(=O)NC2CCN(Cc3ccc(C#N)cc3)C2)cc1 (some centres undefined) | > 3.16 | 0.398 | > 3.16 | – | – | – | – | –
33 | N#Cc1ccc(CN2CCC(NC(=O)[C@H](Cc3ccc(O)cc3)NC(=O)Nc3ccc(C(=O)Nc4ccccc4)cc3)C2)cc1 (some centres undefined) | > 3.16 | 0.501 | > 3.16 | – | – | – | – | –
34 | CCOC(=O)c1ccc(NC(=O)N[C@@H](Cc2ccc(Cl)c(Cl)c2)C(=O)N[C@H]2CC[N+](C)(Cc3ccc4c(c3)OCO4)C2)cc1 (some centres undefined) | 0.0126 | 0.0251 | 0.0398 | – | – | – | – | –
35 | CCCNC(=O)c1ccc(NC(=O)N[C@@H](Cc2ccc(O)cc2)C(=O)NC2CCN(Cc3ccc(C#N)cc3)C2)cc1 (some centres undefined) | > 3.16 | 0.501 | > 3.16 | – | – | – | – | –
36 | CCOC(=O)c1ccc(NC(=O)N[C@@H](Cc2ccc(C#N)cc2)C(=O)N[C@H]2CC[N+](C)(Cc3ccc4c(c3)OCO4)C2)cc1 (some centres undefined) | 0.0126 | 0.0501 | 0.251 | – | – | – | – | –
37 | Cc1noc(-c2ccc(NC(=O)N[C@@H](Cc3ccc(O)cc3)C(=O)N[C@H]3CCC[N+](C)(Cc4ccc(O)cc4)C3)cc2)n1 (some centres undefined) | – | – | – | – | – | 0.00631 | 0.002 | 0.158
38 | CCOC(=O)c1ccc(NC(=O)N[C@@H](Cc2ccc(Cl)cc2)C(=O)N[C@H]2CC[N+](C)(Cc3ccc4c(c3)OCO4)C2)cc1 (some centres undefined) | 0.00631 | 0.01 | 0.0398 | – | – | – | – | –
39 | O=C(Nc1ccc(C(=O)OCC2CC2)cc1)N[C@@H](Cc1ccc(O)cc1)C(=O)NC1CCN(Cc2ccc(O)cc2)C1 (some centres undefined) | 0.398 | 0.1 | 1 | – | – | – | – | –
40 | CCOC(=O)c1ccc(NC(=O)N[C@@H](Cc2cccc(Cl)c2)C(=O)N[C@H]2CC[N+](C)(Cc3ccc4c(c3)OCO4)C2)cc1 (some centres undefined) | 0.00398 | 0.00794 | 0.0251 | – | – | – | – | –
